Experimental data reported in patent US20060084599A1, “Compositions, methods and kits relating to notch signaling” (Maine Medical Center, priority 2003, published 2006).

B1: sDl1: soluble non-transmembrane form (extracellular domain) of the Notch ligand Delta1 (protein)
chain: QVWSSGVFELKLQEFVNKKGLLGNRNCCRGGAGPPPCACRTFFRVCLKHYQASVSPEPPCTYGSAVTPVLGVDSFSLPDGGGADSAFSNPIRFPFGFTWPGTFSLIIEALHTDSPDDLATENPERLISRLATQRHLTVGEEWSQDLHSSGRTDLKYSYRFVCDEHYYGEGCSVFCRPRDDAFGHFTCGERGEKVCNPGWKGPYCTEPICLPGCDEQHGFCDKPGECKCRVGWQGRYCDECIRYPGCLHGTCQQPWQCNCQEGWGGLFCNQDLNYCTHHKPCKNGATCTNTGQGSYTCSCRPGYTGATCELGIDECDPSPCKNGGSCTDLENSYSCTCPPGFYGKICELSAMTCADGPCFNGGRCSDSPDGGYSCRCPVGYSGFNCEKKIDYCSSSPCSNGAKCVDLGDAYLCRCQAGFSGRHCDDNVDDCASSPCANGGTCRDGVNDFSCTCPPGYTGRNCSAPVSRCEHAPCHNGATCHERGHRYVCECARGYGGPNCQFLLPELPPGPAVVDLTEKLEGQGGPFPW
modifications: left off: small tags and cut ends
notes: soluble non-transmembrane form (extracellular domain) of the Notch ligand Delta1

How the values were obtained:
[1] = test system: FGF1R136K NIH 3T3 cell transfectants; assay: Thrombin stimulation and immunoblot analysis of FGF1 release; type: cell-based, murine
Method: FGF1R136K NIH 3T3 cell transfectants or adenovirally-transduced NIH 3T3 cells were washed with DMEM containing 5 units/ml of heparin (Sigma) and stimulated with either 10 μg/ml α-thrombin (a gift from Dr. J. Fenton) or 5 μM TRAP (Sigma) at 37° C. for different periods of time. Control cells were incubated in the absence of thrombin for the same time period. Conditioned media were collected at each time period, filtered, and concentrated as previously described (Jackson et al., 1992, Proc. Natl. Acad. Sci. U.S.A. 89:10691-10695). The concentrates were resolved by SDS-PAGE and subjected to immunoblot analysis using a rabbit antibody against either FGF1 (Jackson et al., 1992), Syt1 (LaVallee et al., 1998, J. Biol. Chem. 273:22217-22223) or Myc (Oncogene). The heat shock-induced release of FGF1 was performed at 42° C. for 110 minutes as previously described (Jackson et al., 1992). Cell viability was assessed by measuring lactate dehydrogenase activity in the conditioned medium after filtration as disclosed previously elsewhere herein (published as Mandinova et al., 2003, J. Cell Sci. 116:2687-2696), and total cell lysates were obtained and processed for immunoblot analysis as described (Landriscina et al., 2001, J. Biol. Chem. 276:22544-22552).
Stable FGF1R136K NIH 3T3 cell transfectants were pre-incubated with either 100 ng/ml pertussis toxin (PTX) or 10 ng/ml cholera toxin (CT) for 60 minutes at 37° C. in DMEM containing 10% BCS. After pre-incubation, the cells were washed, stimulated with 10 μg/ml of thrombin for different periods of time in the presence of either 100 ng/ml PTX or 10 ng/ml CT, conditioned medium collected, and subjected to immunoblot analysis as described above.

[2] = test system: FGF gene family transcripts; assay: RT-PCR of FGF gene family expression; type: cell-based, murine; settings: stable NIH 3T3 cell transfectants expressing the ligand
Method: Total RNA from vector control, sJ1, caN1 and dnN1 stable transfectants was isolated using Tri Reagent™ (Sigma) according to the manufacturer's protocol. cDNA was obtained from 5 μg total RNA with SuperScript™ (Invitrogen) reverse transcriptase using an oligo dT primer (Invitrogen). The following specific primers were purchased from IDT and used for RT-PCR analysis. Sense primers are indicated by (s); Antisense primers are indicated by (as): […]
PCR amplification was performed for 45 cycles as follows: 40 seconds at 94° C., 40 seconds at 50° C. (for FGF2, FGF3, FGF4 and FGFR3) or at 55° C. (for FGF6, FGF7, FGF8, FGF9, FGF10, FGFR1 and FGFR2), 1 minute at 72° C. For FGF5, RT-PCR analysis was performed as described (Ozawa et al., 1998, J. Biol. Chem. 273: 29262-29271) and all amplified DNA was visualized with ethidium bromide on 1.5% agarose gels.

CBF1-responsive promoter = assay: Dual luciferase assay of CSL-dependent transcription (Example 3); type: cell-based, mouse; settings: NIH 3T3 cells and N1IC NIH 3T3 cells expressing the ligand
Method: Dual Luciferase Assay. CSL-dependent transcription was quantitated as previously described (Small et al., 2001, J. Biol. Chem. 276:32022-32030; Small et al., 2003, J. Biol. Chem. 278:16405-16413). Briefly, approximately 5×10^4 cells representing insert-less vector control, sDl1, sJ1, dominant-negative Notch1 (dnN1), dominant-negative Notch2 (dnN2) (Small et al., 2001, J. Biol. Chem. 276:32022-32030), sDl1/dnSrc and sJ1/dnSrc stable NIH 3T3 cell transfectants were plated on 12-well plastic plates (Falcon) coated with fibronectin (10 μg/cm^2). The cells were transiently transfected at 60% confluence with 500 ng of the CBF1-responsive Luciferase construct (Small et al., 2001, J. Biol. Chem. 276:32022-32030) and 100 ng of a Renilla SV40 construct (Promega) which was utilized as an internal control for transfection efficiency. Gene Juice (Novagen) was used as a transfection reagent. Some of the samples also contained 200 ng of a DNA construct encoding the truncated intracellular constitutively active form of Notch1 (N1IC) (Small et al., 2001, J. Biol. Chem. 276:32022-32030). […] Individual assays were performed in triplicate and the Luciferase/Renilla activity was measured using Dual-Luciferase Reporter Assay System (Promega) 48 hrs following the transient transfection.

[3] = test system: NIH 3T3 cell transfectants; assay: Anchorage-dependent cell growth assay; type: cell-based, mouse; settings: stable NIH 3T3 cell transfectants, 10% BCS
Method: Anchorage-Dependent and -Independent Cell Growth Assays. Approximately 3×10^4 cells were plated on fibronectin (10 μg/cm^2)-coated in 12-well cell culture dishes (Falcon) in DMEM containing 10% BCS (v/v) (Hyclone). Three wells of the individual NIH 3T3 cell transfectants were harvested every third day and cell number was quantitated using a hemocytometer. Anchorage-independent cell growth was evaluated by plating in duplicate approximately 1.7×10^3 cells in DMEM containing 0.5% (w/v) agar (Sigma) 10% (v/v) BCS into 5 cm plastic dishes (Falcon) as previously described (Small et al., 2003, J. Biol. Chem. 278:16405-16413).

[4] = test system: NIH 3T3 cell transfectants; assay: Immunofluorescence microscopy of actin stress fibers and focal adhesion sites; type: cell-based, mouse; settings: stable NIH 3T3 cell transfectants expressing the ligand
Method: Immunofluorescence Microscopy. Cells were plated on glass coverslips and fixed with 4% (v/v) paraformaldehyde. Actin stress fibers were visualized by FITC-conjugated phalloidin (Sigma), a monoclonal anti-vinculin antibody (Sigma) was used to visualize focal adhesion sites, and a monoclonal anti-β-catenin antibody (BD Transduction Laboratories) and a monoclonal anti-pan cadherin antibody (Sigma) were both used to visualize cell-cell adhesions. Immunofluorescent staining and confocal microscopy were performed as previously described (Small et al., 2001, J. Biol. Chem. 276:32022-32030).

Molecule | time after which detectable extracellular FGF-1 was present ([1]; 37° C.) [min] | FGF gene family mRNA expression in transfectants [2] | transactivation of the CBF1-responsive promoter (CBF1-responsive promoter) | growth kinetics at high cell density [3] | F-actin stress fibers and focal adhesion sites [4] | export of FGF2 [1] | thrombin concentration giving maximal release of FGF1R136K ([1]; 37° C.) [µg/mL] | release of FGF1R136K into the extracellular compartment ([1]; 37° C., 10 μg/ml α-thrombin or 5 μM TRAP) | release of FGF1R136K from cells transduced with constitutively active Notch1 ([1]; caN1-transduced FGF1R136K NIH 3T3 cells) | release of S100A13 ([1]; cells co-expressing S100A13 and FGF1R136K, 37° C.) | release of p40 Syt1 ([1]; p40 Syt1-transduced FGF1R136K NIH 3T3 cells)
sJ1: Soluble Jagged1, amino acid residues about 1 to 1067 (SEQ ID NO:3) of full-length human Jagged1 | 5 | expression of mRNAs encoding FGF1, FGF3, FGF4, and FGF5 | inhibited the transactivation of the CBF1-responsive promoter | impaired contact inhibition of growth | significantly reduced actin stress fibers and focal adhesion sites |  |  |  |  |  | 
thrombin | 5 |  |  |  |  | unable to induce the export of FGF2 | 10 | rapid and sustained appearance of the FGF1R136K mutant in the extracellular compartment | unable to initiate the release of the FGF1R136K mutant | presence of S100A13 in the extracellular compartment with kinetics similar to that observed with FGF1 | presence of p40 Syt1in the extracellular compartment
B1 |  | express the FGF3, FGF4 and FGF9 transcripts | inhibited the transactivation of the CBF1-responsive promoter | impaired contact inhibition of growth | normal levels of F-actin stress fibers and focal adhesion sites |  |  |  |  |  | 
